Patent US12545653B2, “Compound as PPAR agonist and application thereof” (USA Elixiria Biotech Inc., priority 2019, dated 2026)

What was measured:
APP/PS1 transgenic mice = experiment: Alzheimer's disease model, eight-arm radial water maze and brain gene expression; assay type: in vivo, mouse; conditions: 30 days in food, 10 mg/kg body weight/day (donepezil 3 mg/kg body weight/day), 5 on the first day
From the text: A common indicator used in academia in memory and dementia experiments is the number of errors in the water maze (reference memory). More errors mean poorer memory. On the last 3 days of dosing, eight-arm radial water maze was used by experimenters who were blind to drug treatment. As a classic experimental instrument, to detect slight deficits in learning and memory, the eight-arm water maze is more sensitive than not only Morris maze, but also Six-arm radial water maze. For details, see reference 8: Alamed J et al. Two-day radial-arm water maze learning and memory task; robust resolution of amyloid-related memory deficits in transgenic mice [J]. […] This experiment uses an eight-arm water maze built in accordance with the above literature. The eight-arm water maze is placed in a basin with an interior diameter of 102 cm. Each arm measures 30 cm long, 14.5 cm wide, and 40 cm high. Escape platform is located at the end of one of the arms. In the reference memory version of the task described here, the goal arm is held constant for all trials, with a different start arm on successive trials. On day one, mice received 12 trials, with trials alternating between visible and hidden platform. On day 2 and 3, mice received 12 additional trials but the platform was kept hidden throughout the trials. Entry into an incorrect arm was scored as a spatial reference error. Errors were averaged into three trial blocks, with four blocks per day, e.g., the first block (the 1st to 3rd trial), the second block (the 4th to 6th trial), and so on. […]. The line charts were made with the number of blocks as the abscissa and the average of the number of errors as the ordinate. At the end of the experiments, the cerebral cortex and hippocampus of the mice were removed, RNA was extracted, and the expression of many genes was analyzed by semi-quantitative RT-PCR. […] The difference is significant with P<0.05.

[1] = system: MPTP-HCl Parkinson's disease model mice; experiment: Parkinson's disease model (MPTP-HCl), beam traversal test; conditions: MPTP-HCl/probenecid mice, 5 mg/kg body weight intraperitoneal daily, 35 days
Protocol: Three month-old male wild type mice were used in the experiment. The treatment lasted for a total of 35 days. […] For all abovementioned groups, Motor skills were assessed on the 36th to 40th days after compound administration. Beam traversal test is a method commonly used in academia to detect movement coordination in animals with Parkinson's disease. […] The mice were first trained for 2 consecutive days, and taught to trained to traverse the length of the beam. On the day of the test, a mesh grid (1 cm squares) of corresponding width was placed over the beam surface leaving a ˜1 cm space between the grid and the beam surface. Animals were then videotaped while traversing the grid-surfaced beam for a total of five trials. An error was counted when, during a forward movement, a forelimb or hindlimb slipped through the grid. The number of errors made per step (referred to as “error per step scores”) was counted. An analysis of variance (ANOVA) and Dunnett post hoc comparison test are used to compare the significance of the differences between different groups of data. The difference is significant with P<0.05.

HEK 293T cells = experiment: Inhibition of reactive oxygen species production (ROS-Glo H2O2 Assay); assay type: cell-based, human; conditions: 18 hours incubation; for EC50: Homo sapiens, HEK-293T, 18 h; for inhibition of active oxygen production (up to), compared to the DMSO control: 0-30 micromole/L
Protocol: Mitochondrial reactive oxygen species-induced oxidative stress is the source of many diseases. This experiment is used to test whether the carbonyl-containing cyclic compounds provided by the present invention can reduce the production of reactive oxygen species. HEK 293T cells were divided into 96-well plates at 5000 cells per well, cultured in a 37° C. carbon dioxide incubator with serum-free Duchenne's Modified Eagle's Medium (DMEM) for 6 hours, and then representatives for compounds listed in Table 2 and 3 were added to a final concentration of 0, 0.1, 0.3, 1, 3, 10, 30 micromole/L, with each concentration in triplicate. After 18 hours of incubation, the reactive oxygen species detection kit (ROS-Glo™ H2O2 Assay) and the GloMax microplate fluorescence detector (Promega, USA) were used to detect reactive oxygen species production. At the same time, pioglitazone was used as a control. The amount of fluorescence is positively related to the production of reactive oxygen species. A three-parameter Sigmoid function curve was used to fit the obtained data. The abscissa represents the logarithmic value of the concentration, and the ordinate represents the percentage of reduced reactive oxygen species production relative to those of the control. Then EC50 value was calculated with professional software.

db−/db− mice = experiment: Diabetic peripheral neuropathy model, Von Frey threshold, sciatic nerve ROS and MDA; assay type: in vivo, mouse; conditions: in food 10 mg/kg body weight/day (pregabalin 30 mg/kg body weight/day)
Protocol: Male 5-6 week-old male db^−/db^− mice were used in the experiment, and their normoglycemic heterozygous littermates were used as controls. db^−/db^− is a commonly used type 2 diabetes animal model. The compounds was dissolved in DMSO and mixed into food pellets. The animals were given ad libitum access to the pellets, beginning from 8 to 9 weeks of age for 10 weeks. […] The method for detecting mice hindlimb hypersensitivity is performed using Von Frey filaments. […] The difference is significant with P<0.05. The increase of mitochondrial reactive oxygen species (ROS) in the sciatic nerve of mice, which in turn leads to the increase of intracellular malondialdehyde (MDA), is the etiology of this type of neuropathic pain. The efficacy of compound to treat the root cause of the disease was evaluated by measurement of the levels of MDA and mitochondrial ROS from the sciatic nerves.

PPARγ = molecular target: T1, PPARγ (Homo sapiens, UniProt P37231); experiment: In vitro transcriptional activity of PPARγ gene (PPRE-luciferase reporter, HEK 293 T cells); assay type: cell-based; conditions: HEK 293 T cells transfected with PPARγ expression and PPRE-luc plasmids, 21 hours; read-out: EC50 of PPARγ gene activation
T1 construct: expressed in transfected cells; host or cells: HEK 293 T cells
T1 sequence (P37231 1-505): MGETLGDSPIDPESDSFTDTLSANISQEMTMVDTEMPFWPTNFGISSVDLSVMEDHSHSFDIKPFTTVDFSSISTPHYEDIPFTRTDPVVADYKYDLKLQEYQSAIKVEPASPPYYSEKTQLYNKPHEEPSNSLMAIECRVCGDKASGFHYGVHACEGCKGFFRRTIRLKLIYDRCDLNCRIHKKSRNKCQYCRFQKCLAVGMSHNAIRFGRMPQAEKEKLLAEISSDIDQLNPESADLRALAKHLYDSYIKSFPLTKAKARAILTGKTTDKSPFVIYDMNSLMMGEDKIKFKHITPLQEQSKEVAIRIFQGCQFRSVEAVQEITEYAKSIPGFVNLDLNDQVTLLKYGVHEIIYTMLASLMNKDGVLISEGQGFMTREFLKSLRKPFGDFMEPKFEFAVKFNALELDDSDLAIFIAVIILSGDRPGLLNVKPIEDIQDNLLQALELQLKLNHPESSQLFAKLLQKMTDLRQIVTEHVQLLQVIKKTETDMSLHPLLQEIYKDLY
From the text: In this experiment, the PPARγ gene was used as target gene to detect the in vitro transcription activity of the compounds. The compounds of interest were detected was first dissolved with dimethyl sulfoxide (DMSO). […] First two plasmids were constructed: PPARγ protein expression plasmid and luciferase reporter plasmid. They are both from the lentiviral plasmid pLV-CMVIE-ZsGreen-Puro, whose DNA sequence contains the cytomegalovirus immediate early (CMVie) promoter, ZsGreen and Puro dual reporter. The PPARγ expression plasmid pLV-CMVIE-PPAR[…]-ZsGreen-Puro was constructed by cloning full-length coding sequences of the pertinent receptors into pHBLV-CMVIE-ZsGreen-Puro vector. To construct the luciferase (luc) reporter plasmid pLV-PPRE-luc-ZsGreen-Puro, the CMVie promoter in plasmid pHBLV-CMVIE-ZsGreenPuro was first replaced by a peroxisome proliferator responsive element (PPRE) containing fragments comprised the nucleotide sequence 50-[…], repeated four times in tandem, to generate a new plasmid, at a multiple cloning site of which the luc gene was then inserted. […] The compounds used for screening are representatives for compounds listed in Table 2, and Tables 3 of the present invention. […] Cells were distributed in 10-cm tissue culture plates at a density of 5.5 million cells per plate, and then transfected with the luciferase reporter plasmid (6 nanogram/plate) and the PPARγ expression plasmid (18 nanogram/plate). Cells were cultured for 6 hours. […] Then the cells were distributed in 96-well plates at a density of 20,000 cells per well. After incubation for 6 h, compounds or control with different concentration were placed into each well, resulting in the finical concentration of […] with each concentration in triplicate. Twenty-one hours later, promoter activation was detected by the addition of SteadyLite (PerkinElmer, Waltham, MA) and GloMax 96 Microplate Luminometer (Promega, Madison, WI). The amount of Luminometer emitted from each well is positively correlated with the expression of PPARγ gene. A three-parameter Sigmoid function curve was used to fit the obtained data. The abscissa represents the logarithmic value of the concentration, and the ordinate represents the percentage of PPARγ gene activation relative to those of the control. […] In Statistical analysis, the coefficient of variation is used to measure the robustness and repeatability of the experiment. […] The difference is significant with P<0.05. EC50 is a parameter of its activity.

klotho gene promoter = experiment: In vitro transcriptional activity of klotho gene (KL-Luc-3 luciferase cell line); assay type: cell-based; conditions: 16 h, KL-Luc-3 cells, 16 hours incubation
From the text: The activities of these carbonyl-containing cyclic compounds are indicated by the increased expression of klotho gene. […] The present invention retains the DNA fragment of the klotho gene promoter, but replaces the DNA sequence of the coding region of the klotho gene with those of luciferase, so that the degree of activation of the klotho gene promoter and the expression of the klotho gene will be sensitively determined by detecting the luciferase luminescence signal.
Klotho is an important downstream gene of PPARγ pathway. The following experiments tested the properties of the compounds in Table 2 and 3 to activate the klotho gene in vitro. First, a stable cell line, KL-Luc, was constructed. The klotho gene carried by the cell line retained the DNA sequence of klotho gene promoter, but the coding sequence of the klotho gene was replaced with luciferase. KL-Luc fragment includes a promoter sequence of the klotho gene (a DNA region of 18,000 base pairs in length upstream of the transcription start site of the gene) and a luciferase-encoding sequence. To construct the KL-Luc sequence containing lentiviral vector, the KL-Luc fragment was cloned into the pDONR vector using BP recombinase, so that the target fragment had attL recombination sites on both sides. Then the KL-Luc fragment was transferred from the pDONR vector to a lentiviral vector (without exogenous promoter) pLenti6/BLOCK-IT-DEST. The constructed lentiviral vector of the target fragment was then transfected into HEK293T cells, and then the KL-Luc gene lentiviral expression vector and the […] were co-transfected into HEK293T cells to perform lentiviral packaging. The virus was harvested, and virus titer was calculated. And the lentivirus was used to infect target cells. The stable strains were screened by adding drugs. Finally, monoclonal cell lines were selected from polyclonal cells by cell cloning. The effective luciferase expression of each monoclonal cell line was determined by quantitative polymerase chain reaction (qPCR). The inventors chose a third monoclonal cell line (KL-Luc-3) to continue the compound screening. The compounds of interest were the compounds in Table 2 and 3. At the same time, rosiglitazone and pioglitazone were used as a control. KL-Luc-3 cells were divided into 96-well plates at 5000 cells in 80 microL per well, cultured in a 37° C. carbon dioxide incubator with serum-free Duchenne's Modified Eagle's Medium (DMEM) for 6 hours, and then the compounds were added to a final concentration of 0, 0.1, 0.3, 1, 3, 10, 30 micromole/L, with each concentration in triplicate. After 16 hours of incubation, the SteadyLite (PerkinElmer, Waltham, MA) and the GloMax Microplate Luminometer (Promega, USA) were used for quantitation of luciferase activity. The amount of luminescence emitted from each well is positively related to the transcriptional activity of the klotho promoter. A three-parameter Sigmoid function curve was used to fit the obtained data. The abscissa represents the logarithmic value of the concentration, and the ordinate represents the percentage of the activity relative to those of the control. […] In Statistical analysis, the coefficient of variation is used to measure the robustness and repeatability of the experiment. […] The difference is significant with P<0.05. EC50 is a parameter of its activity. The lower the EC50 value, the higher the activity of corresponding compound.

[2] = system: dIoN-CCI rat model of trigeminal neuropathic pain; experiment: Trigeminal neuralgia model (dIoN-CCI), Von Frey mechanical threshold; conditions: dIoN-CCI rats
From the text: A common rat model of trigeminal neuralgia is a chronic compression injury model (CCI) caused by ligation of the infraorbital nerve (IoN). In the present study, an improved rat model of trigeminal neuropathic pain was used, in which CCI is induced by ligation of distal segment of IoN (dIoN). Wild type male Sprague-Dawley rats with body weight 250 to 260 grams underwent dIoN-CCI surgery experiments. The mechanical threshold of pain in rats without surgery experiments will exceed 6 grams. If the dIoN-CCI surgery is successful, it will reduce the pain threshold to less than 2 grams.
The mice were divided into the following 11 groups with 4 to 5 mice in each group. The formulation used for transdermal treatment is cream. […] The compound administration of each group starts on the third day after successful dIoN-CCI surgery. […] The method for detecting rat facial hypersensitivity is performed using Von Frey filaments. An analysis of variance (ANOVA) and Dunnett post hoc comparison test are used to compare the significance of the differences between different groups of data. The difference is significant with P<0.05.

[3] = Blood-brain barrier permeability: brain concentration after a single injection; assay type: in vivo, rat; conditions: for AUC(0-t): male, rat, in vivo, ip, 10 mg/kg
Protocol: The blood-brain barrier permeability of carbonyl-containing cyclic compounds is determined in in vivo studies. Healthy male rats used in the study were divided into compound group and control group. […] The brains were dissected, heated immediately at boiling water for 2 min, homogenized with methanol, and centrifuged. The upper layer was collected and dried under vacuum to remove solvents, and then resuspended in methanol. The above samples are filtered through a 0.45 micron nylon membrane, and then 20 microL of sample were load into a high-performance liquid chromatographic (HPLC) system (Model LC-16P, Shimadzu, Japan) to perform quantitative analysis.

[4] = compared with healthy control group

## CCc1ccc(CCCCc2ccc3c(c2)C(=O)CC3)cc1 [ELB00825, 6-(4-(4-ethylphenyl)butyl)-2,3-dihydro-1H-inden-1-one]
APP/PS1 transgenic mice
  number of errors in water maze on the third day: comparable to that of ELB00824
[1]
  number of errors per step in beam traversal test compared with disease control group: significantly lower
HEK 293T cells
  EC50: < 10 µM
db−/db− mice; [4]
  level of MDA in the sciatic nerve after 10 week treatment: reduced
  level of mitochondrial ROS in the sciatic nerve after 10 week treatment: reduced
db−/db− mice; compared with normal control group
  mechanical pain threshold after 10 week treatment: significantly improved

## CCc1cccc(CC/C=C/c2ccc3c(c2)C(=O)CC3)c1 [ELB001203, 6-((1E)-4-(3-ethylphenyl)but-1-en-1-yl)-2,3-dihydro-1H-inden-1-one]
PPARγ
  EC50: < 6.4 µM
Klotho gene promoter
  EC50: < 9.7 µM
HEK 293T cells
  EC50: < 3 µM

## CCc1ccc(CCOc2ccc(CC3SC(=O)NC3=O)cc2)nc1 (stereo not drawn) [pioglitazone, reference compound]
[2]; oral
  minimum effective anti-allodynic dose: 300 mg/kg
[2]; oral 300 mg/kg body weight, Von Frey
  mechanical threshold 2 hours after oral administration: 4.9 ± 0.9 g
HEK 293T cells
  inhibition of active oxygen production (up to), compared to the DMSO control: up to 42%
  EC50: 0.7 µM
[3]; AUC0-6 h
  AUC(0-t): 1510 ng·h/mL
[3]; AUC0-24 h
  AUC(0-t): 3520 ng·h/mL
[3]; rat brain, 10 mg/kg intraperitoneal, single injection
  time to maximum brain concentration (Tmax): 1 h

## CN(CCOc1ccc(CC2SC(=O)NC2=O)cc1)c1ccccn1 (stereo not drawn) [rosiglitazone, reference compound]
Klotho gene promoter
  EC50: 9.7 µM
HEK 293T cells
  inhibition of active oxygen production (up to), compared to the DMSO control: up to 58%
  EC50: 2.5 µM
[3]; AUC0-6 h
  AUC(0-t): 774 ng·h/mL
[3]; AUC0-24 h
  AUC(0-t): 1930 ng·h/mL
